The values that follow come from patent publication EP4566586A1, “SKIN-CARE PRODUCT COMPOSITION AND PHARMACEUTICAL COMPOSITION COMPRISING SULFONATED CALIXARENE, AND USE OF SULFONATED CALIXARENE” (Calix Biotechnology (Hangzhou) Co., Ltd, priority 2022, dated 2024).

Data set [1] in a line: physchem. To be noted: water.
Experimental: Test Method: UV Absorption Spectroscopy.
The UV absorption intensities were measured, and a standard working curve was prepared. […] The mixtures were shaken overnight and then centrifuged to collect the supernatant for UV absorption curve detection.
Data set [2] is described as follows: Skin permeability test of retinoic acid (transdermal diffuser). Type of data set: in vitro ADME. The following applies: ointment base (cream), retinoic acid 1% (w/w), pig skin, 37°C, 24 hours.
Experimental: Testing Method: Skin Permeability Test
Testing Equipment: TP-6 Intelligent Transdermal Diffuser (Tianjin Jingtuo Instrument Technology Co., Ltd.)
Undamaged sections were cut into uniform thickness pieces, approximately 2 cm × 2 cm in size, wrapped in plastic wrap, and stored at -20°C for later use.
The concentration of retinoic acid in the inclusion complex was determined by UV detection, and subsequently diluted to 0.1% (w/w). Additionally, 3 mg of retinoic acid was weighed and mixed with 297 mg of cream in a mortar. The mixture was thoroughly ground to dissolve retinoic acid in the cream, resulting in a retinoic acid concentration of 1% (w/w).
The skin was placed between the diffusion and receptor compartments after thawing. The receptor compartment was filled with the receptor solution (deionized water), and all air bubbles were expelled. The receptor compartment was maintained at 37°C in a circulating water bath throughout the experiment. The transdermal diffuser was activated, with a magnetic stirring speed set at 300 r·min^-1. After 24 hours, the solutions from the receptor compartments of each group were collected for UV detection.
A short description of data set [3]: Solubilization of Retinoic acid by sulfonated calixarene (UV absorption). Type of data set: physicochemical. The following applies: 5 mg retinoic acid in 3 mL deionized water, shaken overnight, supernatant UV.
Experimental: Testing Equipment: A Japan Shimadzu UV-3600 UV-Visible Spectrophotometer, equipped with a temperature control module (model: PTC-348WI), was used. The samples were tested using Shimadzu's quartz cuvettes with an optical path length of 10 mm.
Excess retinoic acid was added to each of the three groups of solutions at a concentration of 5 mg/mL, followed by ultrasonic treatment to enhance the solubility of retinoic acid. After 20 mins, each group of solution was diluted 10-fold for UV absorption wavelength measurement. At the same time, 5 mg (an excess amount) of retinoic acid was added to 3 mL of deionized water, the mixture was shaken overnight, centrifuged to obtain the supernatant. […] Retinoic acid was dissolved in methanol solution to prepare a stock solution of 4 mM retinoic acid in methanol. After 20 mins, the stock solution of retinoic acid in methanol was diluted in water to prepare a retinoic acid standard solution with an appropriate concentration, for UV absorption wavelength detection. […]
A standard working curve for retinoic acid was prepared. […] Subsequently, the UV absorbance intensities of these six groups of solutions with different concentrations of retinoic acid were measured, and a standard working curve was prepared.
Data set [4] in a line: UV titration, binding constants between SC8A-12C and skincare active substances. To be noted: host SC8A-12C, active substance 15 µM in deionized water, 25°C, 1:1 host-guest direct binding model. As for the experimental part:
(§1) Test Method: UV titration.
(§2) Reagents: Vitamin A (Va) was purchased from Shanghai Macklin Biochemical Technology Co., Ltd, retinoic acid was purchased from Heowns Biochem Technologies, LLC, Tianjin, and other skincare active substances were commercially available products.
Va was dissolved in methanol to a concentration of 2 mM. During the test, the Va stock solution was added to a cuvette and adjusted to a volume of 3 mL with deionized water, resulting in a concentration of 10 µM. […] The change in UV absorption intensity was recorded after each addition of the SC8A-12C stock solution. […] The binding constant Kα for the host-guest inclusion was determined.
SC8A-12C stock solution and retinoic acid stock solution were first prepared. […] During the test, the retinoic acid stock solution was added to a cuvette and adjusted to a volume of 3 mL with deionized water, resulting in a concentration of 15 µM. […] The change in UV absorption intensity was recorded after each addition of the SC8A-12C stock solution.
During the test, the stock solution of the active substance was added to a cuvette and adjusted to a volume of 3 mL with deionized water, resulting in a concentration of 15 µM. […] The change in UV absorption intensity was recorded after each addition of the SC8A-12C stock solution. […]

A short description of data set [5]: Solubilization of Vitamin A by sulfonated calixarene (UV absorption). Type of data set: physicochemical. As for the experimental part: Testing Method: UV Absorption Spectroscopy.
In 3 mL of deionized water, 5 mg (an excess amount) of Vitamin A was added, and the mixture was shaken overnight. The mixture was then centrifuged to collect the supernatant, and the UV Absorption Curve of the supernatant was measured (Figure 5).
Excess Va was added to each of these three solutions at a concentration of 5 mg/mL and shaken on a shaker to enhance the solubility of Va. After 24 hours, each group of solution was diluted 40-fold for UV absorption wavelength measurement. Meanwhile, Va was dissolved in methanol solution to prepare a 4 mM Va methanol stock solution. The Va methanol stock solution was then diluted in water to prepare a 5 µM Va standard solution with methanol as a solvent aid, which was used for UV absorption wavelength measurement.
An excess amount of Va was added to each of these solutions at 5 mg/mL, and the solutions were agitated on a shaking table to enhance the solubility of Va. After 24 hours, each group of solutions was diluted by an appropriate multiple (to fit the standard working curve described below) and used for the measurement of UV absorbance intensity.
A standard working curve for Va was prepared. A methanol solution containing 4 mM of Va was prepared. […] Subsequently, the UV absorbance intensities of these six groups of solutions with different concentrations of Va were measured, and a standard working curve was prepared.

The nature of data set [6]: Stabilization of Va by SC8A-12C (UV-visible spectrophotometry). To be noted: free Va, methanol as a solvent aid, stored for two days in the dark. It counts as physicochemical. As for the experimental part: Testing Method: UV-Visible Spectrophotometry.
Va was dissolved in methanol to prepare a Va methanol solution with a concentration of 4 mM, which was then kept in the dark for two days. The UV absorptions of both the freshly prepared and the two-day stored Va methanol solutions were tested. During the testing, the Va methanol solution was first added to a cuvette, and deionized water was used to adjust the volume to 3 mL, achieving a final concentration of Va at 10 µM.

A short description of data set [7]: UV titration, binding constants between SC8A-12C and skincare active substances. To be noted: 25°C, 1:1 host-guest direct binding model; for Binding constants Ka: host SC8A-12C, active substance 15 µM in deionized water. As for the experimental part: as §1
Test Equipment: A Japan Shimadzu UV-3600 UV-Visible Spectrophotometer, equipped with a temperature control module (model: PTC-348WI), was used. The samples were tested using Shimadzu's quartz cuvettes with an optical path length of 10 mm.
as §2
Va was dissolved in methanol to a concentration of 2 mM. During the test, the Va stock solution was added to a cuvette and adjusted to a volume of 3 mL with deionized water, resulting in a concentration of 10 µM. […] The binding constant Kα for the host-guest inclusion was determined.
During the test, the retinoic acid stock solution was added to a cuvette and adjusted to a volume of 3 mL with deionized water, resulting in a concentration of 15 µM.
During the test, the stock solution of the active substance was added to a cuvette and adjusted to a volume of 3 mL with deionized water, resulting in a concentration of 15 µM. […] The UV titration data were fitted using a 1:1 host-guest direct binding model to determine the binding constant Kα for the host-guest inclusion.

Data set [8] is described as follows: Skin permeability test of Va (transdermal diffuser). It counts as in vitro ADME. The following applies: Va 0.4% (w/w), pig skin, 37°C, 55 hours.
Experimental: Undamaged sections were cut into uniform thickness pieces approximately 2 cm × 2 cm in size, wrapped in plastic wrap, and stored at -20°C for later use. 0.8 mg of Va and 200 mg of skincare cream (ointment base) were weighed and added to a mortar. The mixture was thoroughly ground to dissolve Va in the skincare cream, resulting in a Va concentration of 0.4% (w/w). Subsequently, 0.8 mg of Va was weighed and dispersed in 200 µL of water by thoroughly shaking to prepare a suspension of Va (water base), with a Va concentration of 0.4% (w/w). […] The concentration of Va in the inclusion complex was also 0.4% (w/w). The skin was placed between the diffusion and receptor compartments after thawing. The receptor compartment was filled with the receptor solution (deionized water), and all air bubbles were expelled. The receptor compartment was maintained at 37°C in a circulating water bath throughout the experiment. The transdermal diffuser was activated, with a magnetic stirring speed set at 300 r·min^-1. After 55 hours, the solutions from the receptor compartments of each group were collected for UV detection.

The term solubility denotes the concentration that dissolves in the medium under given conditions. High values mean a readily soluble substance, low ones a poorly soluble substance.

Converted amounts (≈) assume the structure as drawn. Marks after values point to notes of the source that are not given here.

In turn, `CC(c1ccccc1)c1ccc(O)cc1O` (stereo not shown) [phenylethyl resorcinol] gave a solubility in data set [1] of 4900 µg/mL (≈ 22.9 mM). With `CC1=C(/C=C/C(C)=C/C=C/C(C)=C/C(=O)O)C(C)(C)CCC1` [retinoic acid], the “retinoic acid in the receptor compartment (UV absorption peak)” value in data set [2] was “no absorption peak of retinoic acid was detected”. Further, the “solubility of retinoic acid in water” value in data set [3] is “hardly soluble”. With palmitoyl tripeptide-5, the “Binding constants Ka” value in data set [4] was 6.3±0.6×10^3 M^-1. As to `O=S(=O)(O)c1cc2c(O)c(c1)Cc1cc(S(=O)(=O)O)cc(c1O)Cc1cc(S(=O)(=O)O)cc(c1O)Cc1cc(S(=O)(=O)O)cc(c1O)C2` [SC4A, Sulfonated calix[4]arene], the “solubilization of Va” value in data set [5] is given as “failed to solubilize Va”.

Consider vitamin A, for which the “UV absorption of the Va aqueous solution after storage” value in data set [6] is “significantly decreased”. The “binding constant Kα of SC8A-12C” value in data set [7] (guest Va 10 µM (317 nm) or retinoic acid 15 µM) is reported as “(4.0 ± 0.5) ×10^5 M^-1”. The “Binding constants Ka” value in data set [7] was 4.4±0.5×10^5 M^-1. In data set [8] (ointment base), the “Va in the receptor compartment” value is listed as “no Va was detected”. Further, in data set [8] (water base (suspension)), the “permeability of Va” value is “not good enough”. The “solubility of Va in water” value in data set [5] (5 mg Va in 3 mL deionized water, shaken overnight, supernatant UV) was “almost insoluble”. The “[dissolved Va]” value in data set [5] ([SC8A-12C] 0 µM, Not detected under UV) is given as 0* µM. Regarding `Nc1ccc(C(=O)OCC(O)CO)cc1` (stereo not shown) [glyceryl p-aminobenzoate], the “Binding constants Ka” value in data set [7] is listed as 2.9±0.2×10^3 M^-1. sphingolipids: the “Binding constants Ka” value in data set [7] was 2.5±0.5×10^3 M^-1.

For the compound `CC(C)CCC[C@@H](C)[C@H]1CC[C@H]2[C@@H]3CC=C4C[C@@H](O)CC[C@]4(C)[C@H]3CC[C@]12C` [cholesterol], in data set [7], the “Binding constants Ka” value was 2.3±0.5×10^5 M^-1.

Consider `OC[C@@H](O)[C@@H](O)[C@H](O)[C@@H](O)CO` [sorbitol], for which the “Binding constants Ka” value in data set [7] is reported as 5.3±0.4×10^3 M^-1. Take `O=C1O[C@H]([C@@H](O)CO)C(O)=C1O[C@H]1O[C@H](CO)[C@@H](O)[C@H](O)[C@H]1O` [ascorbyl glucoside]: the “Binding constants Ka” value in data set [7] is on record as 5.2±0.3×10^3 M^-1. Consider `CCCCCCOC(=O)c1ccccc1C(=O)c1ccc(N(CC)CC)cc1O` [diethylamino hydroxybenzoyl hexyl benzoate], for which, in data set [7], the “Binding constants Ka” value was 3.8±0.3×10^3 M^-1. Turning to cocamidopropyl betaine, the “Binding constants Ka” value in data set [7] was 0.8±0.1×10^4 M^-1. On to proanthocyanidins, for which the “Binding constants Ka” value in data set [7] is 2.6±0.3×10^3 M^-1. With `Cn1c(=O)c2c(ncn2C)n(C)c1=O` [caffeine], the “Binding constants Ka” value in data set [7] is recorded as 3.2±0.8×10^3 M^-1.

As for `OC[C@H]1O[C@@H](Oc2ccc(O)cc2)[C@H](O)[C@@H](O)[C@@H]1O` [arbutin], the “Binding constants Ka” value in data set [7] was 4.3±0.5×10^3 M^-1. In the case of vitamin E, in data set [7], the “Binding constants Ka” value is 2.6±0.4×10^3 M^-1. For the compound α-bisabolol, in data set [7], the “Binding constants Ka” value is 2.8±0.6×10^4 M^-1. For `CCCCCCCCCCO[C@@H]1O[C@H](CO)[C@@H](O)[C@H](O)[C@H]1O` [decyl glucoside], the “Binding constants Ka” value in data set [7] is recorded as 3.3±0.5×10^4 M^-1.

Turning to ceramides, the “Binding constants Ka” value in data set [7] is recorded as 6.5±0.2×10^3 M^-1. Regarding `O=S(=O)(O)c1cc2c(O)c(c1)Cc1cc(S(=O)(=O)O)cc(c1O)Cc1cc(S(=O)(=O)O)cc(c1O)Cc1cc(S(=O)(=O)O)cc(c1O)Cc1cc(S(=O)(=O)O)cc(c1O)Cc1cc(S(=O)(=O)O)cc(c1O)Cc1cc(S(=O)(=O)O)cc(c1O)Cc1cc(S(=O)(=O)O)cc(c1O)C2` [SC8A, Sulfonated calix[8]arene], the “solubilization of Va” value in data set [5] is on record as “failed to solubilize Va”. `O=C(O)CCCCCCCC(=O)O` [azelaic acid]: in data set [7], the “Binding constants Ka” value was 5.2±0.1×10^3 M^-1.
